Reference: ChEMBL document CHEMBL2440042, “Anti-proliferative activity of hydnocarpin, a natural lignan, is associated with the suppression of Wnt/β-catenin signaling pathway in colon cancer cells” (Bioorg Med Chem Lett, 2013)

These compounds were tested on HEK293 (assay: Inhibition of Wnt/beta-catenin signaling pathway in human HEK293 cells at 20 uM after 24 hrs by dual luciferase reporter gene assay relative to vehicle-treated control). Conditions: HEK293, 24 h.

Row | Compound | inhibition at 20 µM [%]
1 | Oc1ccc2c(c1)OCO2 | 10.1
2 | COc1cc([C@@H](O)[C@@H](CO)Oc2ccc(CCCO)cc2O)ccc1O | -30.7
3 | COc1cc([C@@H]2Oc3c(OC)cc(CCCO[C@@H]4O[C@H](CO)[C@@H](O)[C@H](O)[C@H]4O)cc3[C@H]2CO)ccc1O | -14.8
4 | CC(=O)/C=C/C=C/c1ccc2c(c1)O[C@@H](CO)[C@H](c1ccc(O)c(O)c1)O2 | 0.6
5 | O=C/C=C/c1ccc2c(c1)OC(c1ccc3c(c1)OC(CO)C(c1ccc(O)c(O)c1)O3)C(CO)O2 (stereo not drawn) | 69.9
6 | COc1cc([C@H]2c3c(cc(O)c(O)c3OC)C[C@@H](CO)[C@@H]2CO)ccc1O | 2.6
7 | COC(=O)[C@@H](Cc1ccc(O)c(O)c1)OC(=O)/C=C/c1ccc(O)c2c1[C@@H](C(=O)O[C@H](Cc1ccc(O)c(O)c1)C(=O)OC)[C@H](c1ccc(O)c(O)c1)O2 | 10.5
8 | COc1cc([C@H]2OC[C@@H]3[C@@H]2CO[C@H]3c2cc(OC)c(O[C@@H]3O[C@H](CO)[C@@H](O)[C@H](O)[C@H]3O)c(OC)c2)cc(OC)c1O[C@@H]1O[C@H](CO)[C@@H](O)[C@H](O)[C@H]1O | 9.8
9 | COc1cc(CC(CO)c2cc(/C=C/CO)cc(OC)c2O[C@@H]2O[C@H](CO)[C@@H](O)[C@H](O)[C@H]2O)ccc1O (stereo partly drawn) | 11.4
10 | COc1cc([C@@H]2OC[C@@H]3[C@H]2CO[C@@H]3c2ccc(OC)c(OC)c2)ccc1O | 24.7
11 | O[C@]12CO[C@H](c3ccc4c(c3)OCO4)[C@H]1CO[C@@H]2c1ccc2c(c1)OCO2 | -3.5
12 | O=C/C=C/c1ccc2c(c1)O[C@@H](CO)[C@H](c1ccc(O)c(O)c1)O2 [AMERICANIN A] | 55
13 | C/C=C/c1cc(OC)c2c(c1)C(C)C(c1ccc(O)c(OC)c1)O2 (stereo not drawn) [DEHRODIISOEUGENOL] | 28
14 | COc1cc([C@@H]2Oc3c(OC)cc(CCCO)cc3[C@H]2CO)ccc1O [DIHYDRODEHYDRODICONIFERYL ALCOHOL] | 31.4
15 | COc1ccc([C@@H]2OC[C@@H]3[C@H]2CO[C@H]3c2ccc(OC)c(OC)c2)cc1OC [EUDESMINE] | 26.3
16 | COc1ccc([C@@H]2OC[C@H]3[C@@H]2CO[C@@H]3c2ccc3c(c2)OCO3)cc1OC [FARGESIN] | 29.8
17 | COc1cc2c(c(OC)c1OC)-c1c(cc3c(c1OC)OCO3)C[C@H](C)[C@](C)(O)C2 [GOMISIN A] | 38.2
18 | C=CCc1ccc(O)c(-c2ccc(O)c(CC=C)c2)c1 [HONOKIOL] | 59.3
19 | C=CCc1ccc(O)c(-c2cc(CC=C)ccc2O)c1 [MAGNOLOL] | 72.4
20 | COc1cc(C[C@H]2COC(=O)[C@@H]2Cc2ccc(O[C@@H]3O[C@H](CO)[C@@H](O)[C@H](O)[C@H]3O)c(OC)c2)ccc1O [MATAIRESINOSIDE] | 9.3
21 | O=C(/C=C/c1ccc(O)c(O)c1)O[C@H](Cc1ccc(O)c(O)c1)C(=O)O [ROSMARINIC ACID] | 27
22 | C/C=C(\C)C(=O)O[C@H]1c2cc(OC)c(OC)c(OC)c2-c2c(cc3c(c2O)OCO3)C[C@H](C)[C@]1(C)O [SCHISANTHERIN C] | -9.3
23 | COc1cc2c(c(OC)c1OC)-c1c(cc(OC)c(OC)c1OC)C[C@](C)(O)[C@@H](C)C2 [SCHIZANDRIN] | 6.2
24 | c1cc2c(cc1[C@H]1OC[C@H]3[C@@H]1CO[C@@H]3c1ccc3c(c1)OCO3)OCO2 [SESAMIN] | 39.7
25 | c1cc2c(cc1O[C@H]1OC[C@H]3[C@@H]1CO[C@@H]3c1ccc3c(c1)OCO3)OCO2 [SESAMOLIN] | 11.6
26 | COc1cc(C2Oc3cc([C@H]4Oc5cc(O)cc(O)c5C(=O)[C@@H]4O)ccc3OC2CO)ccc1O (stereo partly drawn) [SILIBININ] | 8.3
27 | COc1cc([C@H]2OC[C@H]3[C@@H]2CO[C@@H]3c2ccc3c(c2)OCO3)ccc1O[C@@H]1O[C@H](CO)[C@@H](O)[C@H](O)[C@H]1O [SIMPLEXOSIDE] | -13.6
28 | COc1cc2c(c(OC)c1OC)-c1c(cc3c(c1OC)OCO3)C[C@H](C)[C@H](C)C2 [WUWEIZISU B] | -17.8
